This note sets out measurements from ChEMBL document CHEMBL1909046, “DrugMatrix in vitro pharmacology data”.

Data set [1] addresses Aldo-keto reductase family 1 member B1 (Rattus norvegicus, UniProt P07943). In kind it is tissue-based, Lens of camera-type eye.
The target in another data set is T1, B2 bradykinin receptor (Homo sapiens, UniProt P30411). Note: in other assays of this panel Not Active means under 50% inhibition at 10 µM.
T1 sequence (P30411 whole entry): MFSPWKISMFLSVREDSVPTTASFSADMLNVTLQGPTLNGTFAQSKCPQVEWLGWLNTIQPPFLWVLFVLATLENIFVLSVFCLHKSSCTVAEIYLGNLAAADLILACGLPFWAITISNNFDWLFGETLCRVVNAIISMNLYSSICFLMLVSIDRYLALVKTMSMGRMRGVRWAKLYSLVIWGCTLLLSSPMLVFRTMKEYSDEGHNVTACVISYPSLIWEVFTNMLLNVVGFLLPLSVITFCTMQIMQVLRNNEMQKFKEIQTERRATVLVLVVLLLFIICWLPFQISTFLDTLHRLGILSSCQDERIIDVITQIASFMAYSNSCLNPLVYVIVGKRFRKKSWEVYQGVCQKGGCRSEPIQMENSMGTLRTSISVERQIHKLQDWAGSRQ
In kind it is cell membranes, Membrane. As to conditions: chem-1.

Data set [2] is described as follows: DRUGMATRIX: Serotonin (5-Hydroxytryptamine) 5-HT3 radioligand binding (ligand: [3H] GR-65630). Format: cell membranes, Membrane. The settings on record: hek293; Not Active = under 50% inhibition at 10 µM.
A short description of data set [3]: DRUGMATRIX: Sigma2 radioligand binding (ligand: [3H] Ifenprodil). Format: cell membranes, Rattus norvegicus, Wistar, Brain, Membrane. The settings on record: Not Active = under 50% inhibition at 10 µM.
The target in data set [4] is Vascular endothelial growth factor receptor 1 (Homo sapiens, UniProt P17948). Put plainly: biochemical. In kind it is cell-based, HUVEC. As to conditions: huvec. Note: in other assays of this panel Not Active means under 50% inhibition at 10 µM.
Chain of Vascular endothelial growth factor receptor 1 (P17948 whole entry): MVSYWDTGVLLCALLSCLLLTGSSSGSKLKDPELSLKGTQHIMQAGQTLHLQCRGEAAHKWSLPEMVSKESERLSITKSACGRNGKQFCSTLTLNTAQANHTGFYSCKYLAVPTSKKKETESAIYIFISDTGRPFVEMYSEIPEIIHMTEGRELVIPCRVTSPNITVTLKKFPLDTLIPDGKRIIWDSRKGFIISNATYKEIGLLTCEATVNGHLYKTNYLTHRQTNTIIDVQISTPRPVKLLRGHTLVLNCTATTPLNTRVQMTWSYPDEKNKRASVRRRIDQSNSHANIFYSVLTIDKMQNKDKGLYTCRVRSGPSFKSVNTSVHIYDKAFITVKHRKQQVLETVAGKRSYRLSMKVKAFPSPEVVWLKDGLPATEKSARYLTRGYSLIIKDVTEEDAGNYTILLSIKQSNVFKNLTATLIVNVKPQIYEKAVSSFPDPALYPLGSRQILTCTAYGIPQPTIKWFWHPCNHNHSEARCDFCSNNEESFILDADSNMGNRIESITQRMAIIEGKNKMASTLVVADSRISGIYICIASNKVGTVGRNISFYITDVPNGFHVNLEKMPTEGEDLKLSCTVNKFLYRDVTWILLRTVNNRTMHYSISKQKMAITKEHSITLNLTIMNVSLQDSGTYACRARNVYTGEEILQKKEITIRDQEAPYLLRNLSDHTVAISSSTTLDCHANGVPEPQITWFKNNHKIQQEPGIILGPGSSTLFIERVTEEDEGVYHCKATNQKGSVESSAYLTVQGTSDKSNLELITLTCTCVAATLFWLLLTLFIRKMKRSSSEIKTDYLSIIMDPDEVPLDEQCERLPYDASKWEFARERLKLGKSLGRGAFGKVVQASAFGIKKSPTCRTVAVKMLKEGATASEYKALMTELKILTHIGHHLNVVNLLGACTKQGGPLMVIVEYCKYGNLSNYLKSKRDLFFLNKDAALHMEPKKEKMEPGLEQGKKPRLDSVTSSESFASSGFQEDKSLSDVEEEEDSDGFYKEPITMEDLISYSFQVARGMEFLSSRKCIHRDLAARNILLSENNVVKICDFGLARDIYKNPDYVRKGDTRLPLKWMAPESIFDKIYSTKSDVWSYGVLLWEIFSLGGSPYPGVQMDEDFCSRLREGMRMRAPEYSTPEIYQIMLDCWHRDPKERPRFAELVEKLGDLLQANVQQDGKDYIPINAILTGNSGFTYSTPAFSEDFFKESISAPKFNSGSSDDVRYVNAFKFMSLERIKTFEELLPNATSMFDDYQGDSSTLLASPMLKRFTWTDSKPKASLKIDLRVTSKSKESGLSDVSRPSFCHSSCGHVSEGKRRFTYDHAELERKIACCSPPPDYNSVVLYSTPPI
Data set [5] can be described thus: DRUGMATRIX: Purinergic P2X radioligand binding (ligand: [3H] alpha, beta-Methylene-ATP). Format: cell membranes, Oryctolagus cuniculus, New Zealand albino, Urinary bladder, Membrane. The settings on record: Not Active = under 50% inhibition at 10 µM.
In another data set the target is Cytochrome P450 2C19 (Homo sapiens, UniProt P33261). The settings on record: bti-tn-5b1-4. Note: in other assays of this panel Not Active means under 50% inhibition at 10 µM.
Chain of Cytochrome P450 2C19 (P33261 whole entry): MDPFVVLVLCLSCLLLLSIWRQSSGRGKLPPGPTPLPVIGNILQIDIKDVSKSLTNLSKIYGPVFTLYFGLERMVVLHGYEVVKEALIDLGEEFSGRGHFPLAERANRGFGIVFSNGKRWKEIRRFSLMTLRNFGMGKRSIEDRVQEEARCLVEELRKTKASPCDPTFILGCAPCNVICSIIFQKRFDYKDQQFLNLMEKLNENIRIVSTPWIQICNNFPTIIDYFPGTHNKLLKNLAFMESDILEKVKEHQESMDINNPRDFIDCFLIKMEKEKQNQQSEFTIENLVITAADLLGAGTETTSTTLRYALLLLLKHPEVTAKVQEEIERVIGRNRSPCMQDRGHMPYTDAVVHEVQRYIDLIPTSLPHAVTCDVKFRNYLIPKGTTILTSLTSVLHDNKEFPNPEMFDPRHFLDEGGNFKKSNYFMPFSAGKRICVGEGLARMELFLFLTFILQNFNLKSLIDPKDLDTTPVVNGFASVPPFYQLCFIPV

`NC(=O)C[S+]([O-])C(c1ccccc1)c1ccccc1` (stereo unspecified) [MODAFINIL]: the IC50 entry (in data set [1]; against B2 bradykinin receptor; in data set [2]; in data set [3]; in data set [4]; in data set [5]) was “Not Active” throughout. Also, the IC50 entry on Cytochrome P450 2C19 is recorded as “Not Active”. The Ki result (in data set [2]; in data set [3]; in data set [5]; on Cytochrome P450 2C19) was “Not Active” in each case.

Take `CC(C)NNC(=O)c1ccncc1` [IPRONIAZID]: the IC50 entry (in data set [1]; on B2 bradykinin receptor; in data set [2]; in data set [3]; in data set [4]; in data set [5]) was “Not Active” throughout. Moreover, on Cytochrome P450 2C19, the IC50 entry is reported as “Not Active”. The Ki entry (in data set [2]; in data set [3]; in data set [5]; at Cytochrome P450 2C19) was “Not Active” throughout.

In the case of GRAMICIDIN, the IC50 result (in data set [1]; at B2 bradykinin receptor; in data set [2]; in data set [3]; in data set [4]; in data set [5]) was “Not Active” in each case. In addition, the IC50 result on Cytochrome P450 2C19 is “Not Active”. For the same compound, the Ki entry (in data set [1]; at B2 bradykinin receptor; in data set [2]; in data set [3]; in data set [4]; in data set [5]) was “Not Active” throughout. Moreover, at Cytochrome P450 2C19, the Ki entry is recorded as “Not Active”.

As to `Oc1cccc(O)c1O` [PYROGALLOL], the IC50 entry (in data set [1]; on B2 bradykinin receptor; in data set [2]; in data set [3]; in data set [4]; in data set [5]) was “Not Active” throughout. The IC50 entry on Cytochrome P450 2C19 is given as “Not Active”. Further, the Ki entry (in data set [2]; in data set [3]; in data set [5]; at Cytochrome P450 2C19) was “Not Active” each time.

For `NNc1nncc2ccccc12` [HYDRALAZINE], the IC50 entry (in data set [1]; against B2 bradykinin receptor; in data set [2]; in data set [3]; in data set [4]; in data set [5]) was “Not Active” each time. The IC50 result against Cytochrome P450 2C19 is “Not Active”. The Ki result (in data set [2]; in data set [3]; in data set [5]; at Cytochrome P450 2C19) was “Not Active” each time.

As to `C[C@]12C=CC(=O)C=C1CC[C@@H]1[C@@H]2[C@@H](O)C[C@@]2(C)[C@H]1CC[C@]2(O)C(=O)CO` [PREDNISOLONE], the IC50 result (in data set [1]; against B2 bradykinin receptor; in data set [2]; in data set [3]; in data set [4]; in data set [5]) was “Not Active” throughout. On Cytochrome P450 2C19, the IC50 result is recorded as “Not Active”. In addition, the Ki result (in data set [2]; in data set [3]; in data set [5]; on Cytochrome P450 2C19) was “Not Active” each time.

On to `O=C1O[C@H]([C@@H](O)CO)C(O)=C1O` [ASCORBIC ACID], for which the IC50 result (in data set [1]; against B2 bradykinin receptor; in data set [2]; in data set [3]; in data set [4]; in data set [5]) was “Not Active” throughout. Further, the IC50 entry at Cytochrome P450 2C19 is listed as “Not Active”. Moreover, the Ki entry (in data set [2]; in data set [3]; in data set [5]; at Cytochrome P450 2C19) was “Not Active” in each case.

Turning to `C[n+]1ccccc1/C=N/O.[Cl-]` [PRALIDOXIME CHLORIDE], the IC50 entry (in data set [1]; at B2 bradykinin receptor; in data set [2]; in data set [3]; in data set [4]; in data set [5]) was “Not Active” throughout. Also, the IC50 entry at Cytochrome P450 2C19 was “Not Active”. For the same compound, the inhibition constant (Ki) entry (in data set [2]; in data set [3]; in data set [5]; at Cytochrome P450 2C19) was “Not Active” throughout.

On to `CCC1(CCC(C)C)C(=O)NC(=O)NC1=O` [AMOBARBITAL], for which the IC50 result (in data set [1]; against B2 bradykinin receptor; in data set [2]; in data set [3]; in data set [4]; in data set [5]) was “Not Active” in each case. The IC50 entry at Cytochrome P450 2C19 is “Not Active”. Moreover, the Ki entry (in data set [2]; in data set [3]; in data set [5]; on Cytochrome P450 2C19) was “Not Active” each time.

In the case of `O=C/C=C/c1ccccc1`, the IC50 result (in data set [1]; on B2 bradykinin receptor; in data set [2]; in data set [3]; in data set [4]; in data set [5]) was “Not Active” each time. The IC50 result against Cytochrome P450 2C19 is reported as “Not Active”. Besides, the inhibition constant (Ki) result (in data set [2]; in data set [3]; in data set [5]; at Cytochrome P450 2C19) was “Not Active” each time.

Turning to `CN(C)CC[C@@H](c1ccc(Cl)cc1)c1ccccn1` [DEXCHLORPHENIRAMINE], the half-maximal inhibitory concentration (IC50) entry in data set [1] is “Not Active”; at B2 bradykinin receptor it was “Not Active”; in data set [2] it was “Not Active”; in data set [3] (read-out: IC50), 19.1 µM; in data set [4] it was “Not Active”; in data set [5], “Not Active”. At Cytochrome P450 2C19, the IC50 entry is recorded as “Not Active”. In addition, the Ki entry in data set [2] was “Not Active”; in data set [3] (read-out: Ki), 11.7 µM; in data set [5], “Not Active”; at Cytochrome P450 2C19, “Not Active”.

On to `OC(CCCN1CCCCC1)(c1ccccc1)c1ccccc1` [DIPHENIDOL], for which the IC50 entry (in data set [1]; on B2 bradykinin receptor; in data set [2]; in data set [3]; in data set [4]; in data set [5]) was “Not Active” each time. For the same compound, on Cytochrome P450 2C19, the IC50 result is recorded as “Not Active”. Moreover, the inhibition constant Ki result (in data set [2]; in data set [3]; in data set [5]; on Cytochrome P450 2C19) was “Not Active” in each case.

As to `CC1(C)S[C@@H]2[C@H](NC(=O)[C@H](N)c3ccccc3)C(=O)N2[C@H]1C(=O)O` [AMPICILLIN], the IC50 result (in data set [1]; against B2 bradykinin receptor; in data set [2]; in data set [3]; in data set [4]; in data set [5]) was “Not Active” in each case. Moreover, the IC50 entry against Cytochrome P450 2C19 was “Not Active”. Moreover, the Ki result (in data set [2]; in data set [3]; in data set [5]; on Cytochrome P450 2C19) was “Not Active” throughout.

`Cn1c(=O)c2c(ncn2CC(O)CO)n(C)c1=O` (stereo unspecified) [DYPHYLLINE]: the IC50 result (in data set [1]; at B2 bradykinin receptor; in data set [2]; in data set [3]; in data set [4]; in data set [5]) was “Not Active” throughout. Besides, the IC50 entry against Cytochrome P450 2C19 is reported as “Not Active”. The Ki result (in data set [2]; in data set [3]; in data set [5]; at Cytochrome P450 2C19) was “Not Active” throughout.

Take `CN(C)[C@@H]1C(O)=C(C(N)=O)C(=O)[C@@]2(O)C(O)=C3C(=O)c4c(O)ccc(Cl)c4[C@@](C)(O)[C@H]3C[C@@H]12` [CHLORTETRACYCLINE]: the IC50 result (in data set [1]; against B2 bradykinin receptor; in data set [2]; in data set [3]; in data set [4]; in data set [5]) was “Not Active” in each case. In addition, the IC50 result against Cytochrome P450 2C19 is reported as “Not Active”. The Ki entry (in data set [2]; in data set [3]; in data set [5]; at Cytochrome P450 2C19) was “Not Active” throughout.

With `Cn1c(=O)c2[nH]cnc2n(C)c1=O.Cn1c(=O)c2[nH]cnc2n(C)c1=O.NCCN` [AMINOPHYLLINE], the IC50 result (in data set [1]; at B2 bradykinin receptor; in data set [2]; in data set [3]; in data set [4]; in data set [5]) was “Not Active” in each case. The IC50 entry against Cytochrome P450 2C19 is given as “Not Active”. Besides, the Ki entry (in data set [2]; in data set [3]; in data set [5]; at Cytochrome P450 2C19) was “Not Active” throughout.

For `C[C@H]1O[C@@H](n2cc(F)c(=O)[nH]c2=O)[C@H](O)[C@@H]1O` [DOXIFLURIDINE], the IC50 entry (in data set [1]; against B2 bradykinin receptor; in data set [2]; in data set [3]; in data set [4]; in data set [5]) was “Not Active” throughout. The IC50 result against Cytochrome P450 2C19 is on record as “Not Active”. Moreover, the Ki result (in data set [2]; in data set [3]; in data set [5]; at Cytochrome P450 2C19) was “Not Active” throughout.

As for `CC(C(=O)O)c1ccc2oc(-c3ccc(Cl)cc3)nc2c1` (stereo unspecified) [BENOXAPROFEN], the IC50 entry (in data set [1]; at B2 bradykinin receptor; in data set [2]; in data set [3]; in data set [4]; in data set [5]) was “Not Active” throughout. The IC50 entry against Cytochrome P450 2C19 is “Not Active”. Also, the Ki entry (in data set [2]; in data set [3]; in data set [5]; on Cytochrome P450 2C19) was “Not Active” each time.

By IC50 is commonly meant the concentration needed to halve the response being measured. Broadly, the Ki is a dissociation constant, usually derived from enzyme kinetics or from competition with a known ligand.
